Test results from patent US8227428B2, “Anti-infammatory macrolide” (Glaxo Group Limited, priority 2009, dated 2012).

Assay: Stability in buffer solutions pH 2 to pH 8 at 25° C.
Type: physicochemical
Procedure: Stability in buffer solutions pH 2 to pH 8 at 25° C., and in bio-relevant media (SGF pH 1.6, Fasted SIF pH 6.5 and Fed SIF pH 5.0) at 37° C., during 24 hours is monitored. The samples are analysed by LC/MS.
Buffer Solutions and Physiologically Relevant Media Used in Stability Assay:
LC Conditions: Instrument HP1100
Column: Waters XBridge C18, 2.1×50 mm, 3.5 μm
Guard column: Waters XBridge C18, 2.1×10 mm, 3.5 μm
• A) 0.1% HCOOH/H2O • B) 0.1% HCOOH/CH3CN Gradient Timetable: […]
Flow: 0.3 mL/min Column temp.: 25° C. Sample temp.: 25° C. (for stability assay in buffer solutions) • 37° C. (for stability assay in bio-relevant media) Injector volume: 3 μL (without injection program) MS Conditions: Instrument HP MS API-ES, positive ion mode Mass Range: 150-1500 Fragmentor: 100 Gain: 1.0 Treshold: 150 Step size: 0.20 Gas Temperature: 350° C. Drying Gas Flow: 13 L/min Nebulizer Pressure: 35 psig Capillary Voltage Positive 4000 V • Negative 4000 V Sample Preparation: a) For Stability Assay in Buffer Solutions
Compounds are dissolved in CH3CN to produce a 1 mg/mL stock solution. The stock solution is diluted to a concentration of 0.2 mg/mL (1 mL solution in 4 mL buffer) with appropriate buffer to produce a working solution.
Each solution at each pH is then dispatched into vials that are sealed and stored at room temperature in order to be analyzed at the proper time point. Before analysis, pH values of prepared sample solutions are checked and adjusted if neccessary.

## CC[C@H]1OC(=O)[C@H](C)[C@@H](O[C@H]2C[C@@](C)(OC)[C@@H](OC(=O)CN(CC)CC)[C@H](C)O2)[C@H](C)[C@@H](O[C@@H]2O[C@H](C)C[C@H](N(C)C)[C@H]2O)[C@](C)(OC)C[C@@H](C)C(=O)N[C@H](C)[C@@H](O)[C@]1(C)O [Example 3, 4″-O-(2-diethylaminoethanoyl)-6-O-methyl-9a-aza-9a-homoerythromycin A]
25° C., during 24 hours
  stability in buffers pH 2 to 8: showed stability
pH 2, 25° C., 2 h
  Percentage (Area %) of the compound observed in buffers: 99.4 Area %
pH 2, 25° C., 4 h
  Percentage (Area %) of the compound observed in buffers: 99.5 Area %
pH 2, 25° C., 6 h
  Percentage (Area %) of the compound observed in buffers: 99.5 Area %
pH 2, 25° C., 8 h
  Percentage (Area %) of the compound observed in buffers: 99.5 Area %
pH 2, 25° C., 12 h
  Percentage (Area %) of the compound observed in buffers: 99.6 Area %
pH 2, 25° C., 14 h
  Percentage (Area %) of the compound observed in buffers: 99.6 Area %
pH 2, 25° C., 18 h
  Percentage (Area %) of the compound observed in buffers: 99.6 Area %
pH 2, 25° C., 20 h
  Percentage (Area %) of the compound observed in buffers: 99.5 Area %
pH 2, 25° C., 22 h
  Percentage (Area %) of the compound observed in buffers: 99.5 Area %
pH 2, 25° C., 24 h
  Percentage (Area %) of the compound observed in buffers: 99.5 Area %
pH 2, 25° C., Initial
  Percentage (Area %) of the compound observed in buffers: 100 Area %
pH 3, 25° C., 2 h
  Percentage (Area %) of the compound observed in buffers: 99.8 Area %
pH 3, 25° C., 4 h
  Percentage (Area %) of the compound observed in buffers: 99.6 Area %
pH 3, 25° C., 6 h
  Percentage (Area %) of the compound observed in buffers: 99.5 Area %
pH 3, 25° C., 8 h
  Percentage (Area %) of the compound observed in buffers: 99.8 Area %
pH 3, 25° C., 12 h
  Percentage (Area %) of the compound observed in buffers: 99.6 Area %
pH 3, 25° C., 14 h
  Percentage (Area %) of the compound observed in buffers: 99.8 Area %
pH 3, 25° C., 18 h
  Percentage (Area %) of the compound observed in buffers: 99.7 Area %
pH 3, 25° C., 20 h
  Percentage (Area %) of the compound observed in buffers: 99.6 Area %
pH 3, 25° C., 22 h
  Percentage (Area %) of the compound observed in buffers: 99.4 Area %
pH 3, 25° C., 24 h
  Percentage (Area %) of the compound observed in buffers: 99.4 Area %
pH 3, 25° C., Initial
  Percentage (Area %) of the compound observed in buffers: 100 Area %
pH 4, 25° C., 2 h
  Percentage (Area %) of the compound observed in buffers: 99.1 Area %
pH 4, 25° C., 4 h
  Percentage (Area %) of the compound observed in buffers: 99.0 Area %
pH 4, 25° C., 6 h
  Percentage (Area %) of the compound observed in buffers: 99.1 Area %
pH 4, 25° C., 8 h
  Percentage (Area %) of the compound observed in buffers: 99.2 Area %
pH 4, 25° C., 12 h
  Percentage (Area %) of the compound observed in buffers: 99.2 Area %
pH 4, 25° C., 14 h
  Percentage (Area %) of the compound observed in buffers: 99.2 Area %
pH 4, 25° C., 18 h
  Percentage (Area %) of the compound observed in buffers: 99.2 Area %
pH 4, 25° C., 20 h
  Percentage (Area %) of the compound observed in buffers: 98.9 Area %
pH 4, 25° C., 22 h
  Percentage (Area %) of the compound observed in buffers: 99.1 Area %
pH 4, 25° C., 24 h
  Percentage (Area %) of the compound observed in buffers: 99.2 Area %
pH 4, 25° C., Initial
  Percentage (Area %) of the compound observed in buffers: 100 Area %
pH 5, 25° C., 2 h
  Percentage (Area %) of the compound observed in buffers: 100 Area %
pH 5, 25° C., 4 h
  Percentage (Area %) of the compound observed in buffers: 99.9 Area %
pH 5, 25° C., 6 h
  Percentage (Area %) of the compound observed in buffers: 99.9 Area %
pH 5, 25° C., 8 h
  Percentage (Area %) of the compound observed in buffers: 99.9 Area %
pH 5, 25° C., 12 h
  Percentage (Area %) of the compound observed in buffers: 99.9 Area %
pH 5, 25° C., 14 h
  Percentage (Area %) of the compound observed in buffers: 99.9 Area %
pH 5, 25° C., 18 h
  Percentage (Area %) of the compound observed in buffers: 99.9 Area %
pH 5, 25° C., 20 h
  Percentage (Area %) of the compound observed in buffers: 99.8 Area %
pH 5, 25° C., 22 h
  Percentage (Area %) of the compound observed in buffers: 99.9 Area %
pH 5, 25° C., 24 h
  Percentage (Area %) of the compound observed in buffers: 99.9 Area %
pH 5, 25° C., Initial
  Percentage (Area %) of the compound observed in buffers: 100 Area %
pH 6, 25° C., 2 h
  Percentage (Area %) of the compound observed in buffers: 100 Area %
pH 6, 25° C., 4 h
  Percentage (Area %) of the compound observed in buffers: 100 Area %
pH 6, 25° C., 6 h
  Percentage (Area %) of the compound observed in buffers: 100 Area %
pH 6, 25° C., 8 h
  Percentage (Area %) of the compound observed in buffers: 100 Area %
pH 6, 25° C., 12 h
  Percentage (Area %) of the compound observed in buffers: 99.9 Area %
pH 6, 25° C., 14 h
  Percentage (Area %) of the compound observed in buffers: 99.8 Area %
